Data reported in ChEMBL document CHEMBL4665667, “Lowering Lipophilicity by Adding Carbon: AzaSpiroHeptanes, a logD Lowering Twist” (ACS Med Chem Lett, 2019).

What was measured:
[1] = Lipophilicity, logD of compound at pH 7.4 by Shake-flask distribution coefficient method; format: physicochemical; details: octanol/water
[2] = Apparent permeability in human Caco2 cells at 10 uM; format: ADME, cell-based; details: Caco-2
[3] = Intrinsic clearance in human hepatocytes assessed per 10^6 cells; format: ADME, cell-based, Hepatocyte; details: read-out: CLH
[4] = Dissociation constant, pKa of compound; format: physicochemical
[5] = Intrinsic clearance in human liver microsomes; format: ADME, Microsome; details: read-out: CLH
[6] = Intrinsic clearance in rat hepatocytes assessed per 10^6 cells; format: ADME, cell-based, Hepatocyte; details: read-out: CLH
[7] = molecular target: T1, Glucose-dependent insulinotropic receptor (Homo sapiens, UniProt Q8TDV5); experiment: Agonist activity at human GPR119 expressed in HEK293 cells assessed as increase in cAMP level incubated for 45 mins by cAMP HTRF assay; format: functional, cell-based
T1 sequence (Q8TDV5 whole entry): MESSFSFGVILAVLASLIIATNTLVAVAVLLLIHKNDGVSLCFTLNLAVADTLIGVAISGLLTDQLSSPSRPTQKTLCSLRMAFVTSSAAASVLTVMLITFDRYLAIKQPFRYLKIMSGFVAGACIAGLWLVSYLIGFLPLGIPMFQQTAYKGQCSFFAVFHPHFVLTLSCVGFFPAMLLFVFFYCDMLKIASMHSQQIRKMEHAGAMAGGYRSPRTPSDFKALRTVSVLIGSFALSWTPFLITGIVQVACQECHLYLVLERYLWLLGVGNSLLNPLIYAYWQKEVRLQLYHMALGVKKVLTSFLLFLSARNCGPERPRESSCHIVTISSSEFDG

[8] = Apparent permeability across apical to basolateral side in MDCK cells incubated at 10 uM; format: ADME, cell-based, Canis lupus familiaris; details: dog
[9] = Lipophilicity, logD of compound in octanol and buffer in pH 7.4 incubated for 30 mins under shaking condition by LC/UV analysis; format: physicochemical

Structure (SMILES) | logD [1] | Papp at 10 µM [2] [×10⁻⁶ cm/s] | hepatocyte CLint [3] [µL/min/1e6 cells] | pKa [4] | microsomal CLint [5] [µL/min/mg] | hepatocyte CLint [6] [µL/min/1e6 cells] | EC50 [7] [µM] | Papp A→B at 10 µM [8] [×10⁻⁶ cm/s] | logD at 0.5 h [9]
c1nc(N[C@H]2CC[C@H](N3CC4(COC4)C3)CC2)c2c(C3CCOCC3)c[nH]c2n1 | 0.8 | 4.1 | < 1 | 8.2 | < 3 | 8 | – | – | –
CC(C)(C)OC(=O)N1CC2(C1)CN(c1ncc(OCc3ccncc3C#N)cn1)C2 | – | – | – | – | – | – | 16 | 17 | 2.5
